Reference: patent US9247759B2, “Identification of human T2R receptors that respond to bitter compounds that elicit the bitter taste in compositions, and the use thereof in assays to identify compounds that inhibit (block) bitter taste in compositions and use thereof” (SENOMYX, INC., priority 2007, dated 2016)

Experiments:
hT2R55 = assay: hT2R panel inhibition, transient HEK293 G16g44, agonist Cinchonine 150 μM; assay type: cell-based, human; details: compound at 25 μM; receptor activated to EC80 with the corresponding agonist
Procedure, shortened: (§1)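 Each of 22 human bitter receptors was expressed individually by transient transfection in cells stably carrying the promiscuous G protein. Agonists were applied at EC80, and inhibition was scored as the drop in receptor activity with the test compound present.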

hT2R63 = assay: hT2R panel inhibition, transient HEK293 G16g44, agonist Caffeine 1 mM or Andrographolide 100 μM; assay type: cell-based, human; details: compound at 25 μM; receptor activated to EC80 with the corresponding agonist
Procedure, shortened: as §1

hT2R65 = assay: hT2R panel inhibition, transient HEK293 G16g44, agonist Oleuropein 1 mM; assay type: cell-based, human; details: compound at 25 μM; receptor activated to EC80 with the corresponding agonist
Procedure, shortened: as §1

hT2R3 = hT2R3 (Homo sapiens (Human), UniProt Q9NYW6); assay: hT2R panel inhibition, transient HEK293 G16g44, agonist Chloroquine pH6.5 50 μM; assay type: cell-based; details: receptor activated to EC80 with the corresponding agonist; for inhibition at 25 µM: HEK293, compound at 25 μM, read-out: screening result against bitter receptor 3
Chain of hT2R3 (Q9NYW6 whole entry): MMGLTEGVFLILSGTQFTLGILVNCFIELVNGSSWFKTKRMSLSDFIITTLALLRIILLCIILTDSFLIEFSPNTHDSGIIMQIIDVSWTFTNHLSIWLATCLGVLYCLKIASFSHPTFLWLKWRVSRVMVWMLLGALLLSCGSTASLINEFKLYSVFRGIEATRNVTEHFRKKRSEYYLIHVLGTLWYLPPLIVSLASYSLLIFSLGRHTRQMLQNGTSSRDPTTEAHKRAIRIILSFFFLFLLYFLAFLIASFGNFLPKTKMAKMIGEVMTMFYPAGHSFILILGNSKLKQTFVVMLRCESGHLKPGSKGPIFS
Procedure, shortened: as §1

hT2R64 = hT2R64 (Homo sapiens (Human), UniProt P59538); assay: hT2R panel inhibition, transient HEK293 G16g44, agonist Aristolochic Acid 1 μM; assay type: cell-based; details: receptor activated to EC80 with the corresponding agonist; for inhibition at 25 µM: HEK293, compound at 25 μM, read-out: screening result against bitter receptor 64
Chain of hT2R64 (P59538 whole entry): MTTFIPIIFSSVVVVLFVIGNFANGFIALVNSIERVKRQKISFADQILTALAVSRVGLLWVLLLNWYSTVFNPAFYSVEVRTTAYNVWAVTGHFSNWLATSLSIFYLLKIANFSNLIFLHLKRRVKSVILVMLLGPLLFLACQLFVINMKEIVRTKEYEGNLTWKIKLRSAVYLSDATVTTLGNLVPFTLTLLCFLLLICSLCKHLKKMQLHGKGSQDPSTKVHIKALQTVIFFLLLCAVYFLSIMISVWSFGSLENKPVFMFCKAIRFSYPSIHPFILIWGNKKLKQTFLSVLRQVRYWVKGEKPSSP
Procedure, shortened: as §1

hT2R13 = hT2R13 (Homo sapiens (Human), UniProt Q9NYV9); assay: hT2R panel inhibition, transient HEK293 G16g44, agonist Oxyphenonium 1 mM; assay type: cell-based; details: HEK293, compound at 25 μM; receptor activated to EC80 with the corresponding agonist; read-out: screening result against bitter receptor 13
Chain of hT2R13 (Q9NYV9 whole entry): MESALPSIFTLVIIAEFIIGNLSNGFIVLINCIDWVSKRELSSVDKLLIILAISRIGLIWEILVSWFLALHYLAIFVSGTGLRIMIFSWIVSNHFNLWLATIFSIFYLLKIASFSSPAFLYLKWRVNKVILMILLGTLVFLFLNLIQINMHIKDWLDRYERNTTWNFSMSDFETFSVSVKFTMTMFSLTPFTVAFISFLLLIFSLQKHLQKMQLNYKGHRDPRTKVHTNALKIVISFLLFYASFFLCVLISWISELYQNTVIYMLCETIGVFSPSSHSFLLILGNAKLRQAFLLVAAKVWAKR
Procedure, shortened: as §1

hT2R61 = hT2R61 (Homo sapiens (Human), UniProt P59537); assay: hT2R panel inhibition, transient HEK293 G16g44, agonist Aristolochic Acid 25 nM; assay type: cell-based; details: receptor activated to EC80 with the corresponding agonist; for inhibition at 25 µM: HEK293, compound at 25 μM, read-out: screening result against bitter receptor 61
Chain of hT2R61 (P59537 whole entry): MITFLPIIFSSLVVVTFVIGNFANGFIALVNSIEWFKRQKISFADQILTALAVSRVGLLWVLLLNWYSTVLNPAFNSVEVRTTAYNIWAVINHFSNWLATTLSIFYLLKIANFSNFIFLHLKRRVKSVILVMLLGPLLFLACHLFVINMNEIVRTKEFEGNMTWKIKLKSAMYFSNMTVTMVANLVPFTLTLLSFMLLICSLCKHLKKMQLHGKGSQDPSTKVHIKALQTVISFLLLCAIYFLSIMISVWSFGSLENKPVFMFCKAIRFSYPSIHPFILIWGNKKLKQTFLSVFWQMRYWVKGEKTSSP
Procedure, shortened: as §1

hT2R9 = hT2R9 (Homo sapiens (Human), UniProt Q9NYW1); assay: hT2R panel inhibition, transient HEK293 G16g44, agonist Ofloxacin 1 mM; assay type: cell-based; details: HEK293, compound at 25 μM; receptor activated to EC80 with the corresponding agonist; read-out: screening result against bitter receptor 9
Chain of hT2R9 (Q9NYW1 whole entry): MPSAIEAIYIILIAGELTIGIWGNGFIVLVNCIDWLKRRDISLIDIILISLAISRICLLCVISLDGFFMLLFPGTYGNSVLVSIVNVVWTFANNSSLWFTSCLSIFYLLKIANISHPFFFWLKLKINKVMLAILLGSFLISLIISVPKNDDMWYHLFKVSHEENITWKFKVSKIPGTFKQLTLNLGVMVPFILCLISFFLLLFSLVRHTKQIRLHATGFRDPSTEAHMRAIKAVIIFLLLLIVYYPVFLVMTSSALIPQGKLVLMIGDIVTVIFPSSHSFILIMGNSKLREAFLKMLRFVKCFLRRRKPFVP
Procedure, shortened: as §1

hT2R10 = hT2R10 (Homo sapiens (Human), UniProt Q9NYW0); assay: hT2R panel inhibition, transient HEK293 G16g44, agonist Strychnine 50 μM; assay type: cell-based; details: receptor activated to EC80 with the corresponding agonist; for inhibition at 25 µM: HEK293, read-out: screening result against bitter receptor 10, compound at 25 μM
Chain of hT2R10 (Q9NYW0 whole entry): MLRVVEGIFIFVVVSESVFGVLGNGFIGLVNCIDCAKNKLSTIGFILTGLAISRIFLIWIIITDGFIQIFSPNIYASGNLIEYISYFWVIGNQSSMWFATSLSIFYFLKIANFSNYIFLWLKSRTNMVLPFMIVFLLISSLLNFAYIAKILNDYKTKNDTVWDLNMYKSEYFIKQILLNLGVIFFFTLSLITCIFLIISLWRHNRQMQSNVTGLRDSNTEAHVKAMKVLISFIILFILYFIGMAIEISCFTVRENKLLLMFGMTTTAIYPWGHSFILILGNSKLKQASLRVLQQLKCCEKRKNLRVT

hT2R44 = assay: hT2R panel inhibition, transient HEK293 G16g44, agonist Denatonium 0.5 μM; assay type: cell-based, human; details: compound at 25 μM; receptor activated to EC80 with the corresponding agonist
Procedure, shortened: as §1

hT2R67 = assay: hT2R panel inhibition, transient HEK293 G16g44, agonist Andrographolide 5 μM; assay type: cell-based, human; details: compound at 25 μM; receptor activated to EC80 with the corresponding agonist
Procedure, shortened: as §1

hT2R51 = hT2R51 (Homo sapiens (Human), UniProt P59533); assay: hT2R panel inhibition, transient HEK293 G16g44, agonist Prop 2.5 μM; assay type: cell-based; details: receptor activated to EC80 with the corresponding agonist; for inhibition at 25 µM: HEK293, compound at 25 μM, read-out: screening result against bitter receptor 51
Chain of hT2R51 (P59533 whole entry): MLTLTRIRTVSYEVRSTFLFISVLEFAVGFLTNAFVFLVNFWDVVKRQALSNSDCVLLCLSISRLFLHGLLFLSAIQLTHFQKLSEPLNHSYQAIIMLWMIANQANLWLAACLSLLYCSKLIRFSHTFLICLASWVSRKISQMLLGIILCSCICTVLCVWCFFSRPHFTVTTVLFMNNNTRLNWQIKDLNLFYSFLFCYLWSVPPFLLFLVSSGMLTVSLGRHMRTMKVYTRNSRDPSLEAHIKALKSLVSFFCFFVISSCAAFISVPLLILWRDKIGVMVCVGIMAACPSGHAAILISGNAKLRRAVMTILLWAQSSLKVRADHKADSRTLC
Procedure, shortened: as §1

hT2R71 = hT2R71 (Homo sapiens (Human), UniProt P59536); assay: hT2R panel inhibition, transient HEK293 G16g44, agonist Picric Acid 10 μM; assay type: cell-based; details: receptor activated to EC80 with the corresponding agonist; for inhibition at 25 µM: HEK293, compound at 25 μM, read-out: screening result against bitter receptor 71
Chain of hT2R71 (P59536 whole entry): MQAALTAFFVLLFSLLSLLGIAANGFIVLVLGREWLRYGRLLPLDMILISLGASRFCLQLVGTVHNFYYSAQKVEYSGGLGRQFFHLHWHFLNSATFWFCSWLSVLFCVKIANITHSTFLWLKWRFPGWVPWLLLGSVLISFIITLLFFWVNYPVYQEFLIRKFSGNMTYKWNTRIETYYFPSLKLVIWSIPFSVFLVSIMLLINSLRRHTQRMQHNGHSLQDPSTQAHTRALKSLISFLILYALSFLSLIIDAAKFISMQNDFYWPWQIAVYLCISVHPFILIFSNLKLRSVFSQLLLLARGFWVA
Procedure, shortened: as §1

hT2R75 = hT2R75 (Homo sapiens (Human), UniProt P59540); assay: hT2R panel inhibition, transient HEK293 G16g44, agonist Strychnine 1 μM; assay type: cell-based; details: receptor activated to EC80 with the corresponding agonist; for inhibition at 25 µM: HEK293, read-out: screening result against bitter receptor 75, compound at 25 μM
Chain of hT2R75 (P59540 whole entry): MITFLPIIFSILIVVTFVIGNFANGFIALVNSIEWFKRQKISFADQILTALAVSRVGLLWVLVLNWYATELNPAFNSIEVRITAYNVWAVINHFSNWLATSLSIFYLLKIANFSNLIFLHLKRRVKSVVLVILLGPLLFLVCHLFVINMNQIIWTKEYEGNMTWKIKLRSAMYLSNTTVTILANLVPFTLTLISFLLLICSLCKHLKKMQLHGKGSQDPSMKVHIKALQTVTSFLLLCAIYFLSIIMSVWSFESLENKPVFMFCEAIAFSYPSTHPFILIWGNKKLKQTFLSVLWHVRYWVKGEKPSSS

hT2R14 [1] = biological target: T1, hT2R14 (Homo sapiens (Human), UniProt Q9NYV8); assay: hT2R panel inhibition, transient HEK293 G16g44, agonist Aristolochic Acid 2 μM; assay type: cell-based; details: receptor activated to EC80 with the corresponding agonist; for inhibition at 25 µM: HEK293, compound at 25 μM, read-out: screening result against bitter receptor 14
T1 sequence (Q9NYV8 whole entry): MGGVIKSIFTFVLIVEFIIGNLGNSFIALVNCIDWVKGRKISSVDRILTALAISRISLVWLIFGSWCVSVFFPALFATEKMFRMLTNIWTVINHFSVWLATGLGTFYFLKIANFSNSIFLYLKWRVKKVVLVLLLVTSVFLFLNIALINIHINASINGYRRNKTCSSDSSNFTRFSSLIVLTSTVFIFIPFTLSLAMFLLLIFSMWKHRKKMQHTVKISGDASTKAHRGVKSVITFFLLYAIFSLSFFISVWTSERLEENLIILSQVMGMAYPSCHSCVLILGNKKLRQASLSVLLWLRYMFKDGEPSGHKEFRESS
Procedure, shortened: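 Each hT2R was transiently transfected into HEK293 cells stably expressing G16g44 and assayed functionally for inhibition of agonist response. Agonists were applied at EC80: andrographolide at 0.5 mM for hT2R8 and aristolochic acid at 2 μM for hT2R14.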

hT2R54 = assay: hT2R panel inhibition, transient HEK293 G16g44, agonist Ranitidine 5 mM; assay type: cell-based, human; details: compound at 25 μM; receptor activated to EC80 with the corresponding agonist
Procedure, shortened: as §1

hT2R14 [2] = biological target: T1, hT2R14; assay: hT2R14 antagonist high-throughput FLIPR assay, stable cell line with G16g44, agonist aristolochic acid; assay type: cell-based; details: read-out: IC50 on hT2R14 bitter receptor
Procedure, shortened: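 HEK293 cells stably expressing hT2R14 with chimeric G16g44 were stimulated with aristolochic acid (3 μM), giving 70-80% of maximal receptor activity. Test compounds were added together with the agonist, and antagonism was read as fluorescent calcium signal on FLIPR.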

hT2R16 = hT2R16 (Homo sapiens (Human), UniProt Q9NYV7); assay: hT2R panel inhibition, transient HEK293 G16g44, agonist Salicin 1 mM; assay type: cell-based; details: HEK293, compound at 25 μM; receptor activated to EC80 with the corresponding agonist; read-out: screening result against bitter receptor 16
Chain of hT2R16 (Q9NYV7 whole entry): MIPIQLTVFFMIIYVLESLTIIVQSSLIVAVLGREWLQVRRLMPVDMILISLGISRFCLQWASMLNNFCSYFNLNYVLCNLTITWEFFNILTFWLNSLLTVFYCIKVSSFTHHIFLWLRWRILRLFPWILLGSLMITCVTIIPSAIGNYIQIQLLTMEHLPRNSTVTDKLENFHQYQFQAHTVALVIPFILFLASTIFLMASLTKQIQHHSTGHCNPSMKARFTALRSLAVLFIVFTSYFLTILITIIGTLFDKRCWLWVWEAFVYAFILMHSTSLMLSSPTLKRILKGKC
Procedure, shortened: as §1

hT2R7 = hT2R7 (Homo sapiens (Human), UniProt Q9NYW3); assay: hT2R panel inhibition, transient HEK293 G16g44, agonist Chloroquine pH6.5 10 mM; assay type: cell-based; details: HEK293, compound at 25 μM; receptor activated to EC80 with the corresponding agonist; read-out: screening result against bitter receptor 7
Chain of hT2R7 (Q9NYW3 whole entry): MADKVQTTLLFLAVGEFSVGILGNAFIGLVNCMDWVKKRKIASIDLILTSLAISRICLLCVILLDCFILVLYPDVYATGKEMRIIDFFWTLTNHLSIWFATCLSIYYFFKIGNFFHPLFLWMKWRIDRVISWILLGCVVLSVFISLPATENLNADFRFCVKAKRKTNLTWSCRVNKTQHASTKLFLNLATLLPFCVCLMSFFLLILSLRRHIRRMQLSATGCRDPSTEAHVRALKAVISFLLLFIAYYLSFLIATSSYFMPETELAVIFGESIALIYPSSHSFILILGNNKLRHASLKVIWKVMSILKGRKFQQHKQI
Procedure, shortened: as §1

hT2R5 = hT2R5 (Homo sapiens (Human), UniProt Q9NYW4); assay: hT2R panel inhibition, transient HEK293 G16g44, agonist Picoline 10 mM; assay type: cell-based; details: HEK293, compound at 25 μM; receptor activated to EC80 with the corresponding agonist; read-out: screening result against bitter receptor 5
Chain of hT2R5 (Q9NYW4 whole entry): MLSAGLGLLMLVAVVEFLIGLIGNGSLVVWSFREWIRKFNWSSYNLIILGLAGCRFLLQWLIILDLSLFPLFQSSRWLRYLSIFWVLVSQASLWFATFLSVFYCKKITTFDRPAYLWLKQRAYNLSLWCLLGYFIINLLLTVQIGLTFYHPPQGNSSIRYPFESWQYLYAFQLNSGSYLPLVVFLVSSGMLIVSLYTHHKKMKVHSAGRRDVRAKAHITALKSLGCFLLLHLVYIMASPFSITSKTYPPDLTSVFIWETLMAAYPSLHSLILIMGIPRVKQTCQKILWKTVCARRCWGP
Procedure, shortened: as §1

hT2R4 = hT2R4 (Homo sapiens (Human), UniProt Q9NYW5); assay: hT2R panel inhibition, transient HEK293 G16g44, agonist Chloroquine pH6.5 5 mM; assay type: cell-based; details: HEK293, compound at 25 μM; receptor activated to EC80 with the corresponding agonist; class symbols; read-out: screening result against bitter receptor 4
Chain of hT2R4 (Q9NYW5 whole entry): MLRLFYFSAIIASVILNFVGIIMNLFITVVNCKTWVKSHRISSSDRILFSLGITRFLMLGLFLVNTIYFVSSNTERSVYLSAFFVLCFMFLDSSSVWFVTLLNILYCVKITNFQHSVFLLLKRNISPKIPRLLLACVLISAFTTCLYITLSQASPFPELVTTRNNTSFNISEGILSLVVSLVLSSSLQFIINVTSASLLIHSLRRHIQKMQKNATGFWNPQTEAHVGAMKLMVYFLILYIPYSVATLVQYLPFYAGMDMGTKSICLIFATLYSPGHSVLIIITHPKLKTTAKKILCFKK
Procedure, shortened: as §1

Structure (SMILES)	screening result against bitter receptor 55 (hT2R55)	screening result against bitter receptor 63 (hT2R63)	screening result against bitter receptor 65 (hT2R65)	inhibition at 25 µM (hT2R13) [%]	inhibition at 25 µM (hT2R9) [%]	screening result against bitter receptor 44 (hT2R44)	screening result against bitter receptor 67 (hT2R67)	screening result against bitter receptor 54 (hT2R54)	IC50 (hT2R14 [2]) [nM]	inhibition at 25 µM (hT2R16) [%]	inhibition at 25 µM (hT2R7) [%]	inhibition at 25 µM (hT2R5) [%]	inhibition at 25 µM (hT2R3) [%]	inhibition at 25 µM (hT2R64) [%]	inhibition at 25 µM (hT2R61) [%]	inhibition at 25 µM (hT2R10) [%]	inhibition at 25 µM (hT2R51) [%]	inhibition at 25 µM (hT2R71) [%]	inhibition at 25 µM (hT2R75) [%]	inhibition at 25 µM (hT2R14 [1]) [%]	other results
COc1ccc(CN(Cc2ccc(F)cc2)S(=O)(=O)c2ccc(C(=O)O)cc2)cc1 [Example 5-10, 4-(N-(4-fluorobenzyl)-N-(4-methoxybenzyl)sulfamoyl)benzoic acid]	+++ (60% to 80% inhibition = +++)	++++ (80% or greater inhibition = ++++)	++++ (80% or greater inhibition = ++++)	40 to 60	40 to 60	++ (40% to 60% inhibition = ++)	+++ (60% to 80% inhibition = +++)	++++ (80% or greater inhibition = ++++)	1970	> 80	40 to 60										screening result against bitter receptor 3 (hT2R3; compound at 25 μM): +++ (60% to 80% inhibition = +++); screening result against bitter receptor 64 (hT2R64; compound at 25 μM): +++ (60% to 80% inhibition = +++); screening result against bitter receptor 61 (hT2R61; compound at 25 μM): ++++ (80% or greater inhibition = ++++); screening result against bitter receptor 10 (hT2R10; compound at 25 μM): ++++ (80% or greater inhibition = ++++); screening result against bitter receptor 51 (hT2R51; compound at 25 μM): ++++ (80% or greater inhibition = ++++); screening result against bitter receptor 71 (hT2R71; compound at 25 μM): +++ (60% to 80% inhibition = +++); screening result against bitter receptor 75 (hT2R75; compound at 25 μM): + (20% to 40% inhibition = +); screening result against bitter receptor 14 (hT2R14 [1]; compound at 25 μM): ++++ (80% or greater inhibition = ++++)
COc1ccc(CN(Cc2cccc(F)c2)S(=O)(=O)c2ccc(C(=O)O)cc2)cc1 [Example 5-12, 4-(N-(3-fluorobenzyl)-N-(4-methoxybenzyl)sulfamoyl)benzoic acid]	++++ (80% or greater inhibition = ++++)	++++ (80% or greater inhibition = ++++)	++++ (80% or greater inhibition = ++++)	20 to 40	40 to 60	+++ (60% to 80% inhibition = +++)	+++ (60% to 80% inhibition = +++)	++++ (80% or greater inhibition = ++++)		60 to 80	40 to 60	40 to 60	60 to 80	60 to 80	> 80	> 80	> 80	> 80	20 to 40	> 80	
COc1ccc(CN(Cc2cccc(F)c2F)S(=O)(=O)c2ccc(C(=O)O)cc2)cc1 [Example 5-33, 4-(N-(2,3-difluorobenzyl)-N-(4-methoxybenzyl)sulfamoyl)benzoic acid]	++++ (80% or greater inhibition = ++++)	+++ (60% to 80% inhibition = +++)	+++ (60% to 80% inhibition = +++)	20 to 40	20 to 40	+++ (60% to 80% inhibition = +++)	++ (40% to 60% inhibition = ++)	+++ (60% to 80% inhibition = +++)		40 to 60	20 to 40	40 to 60	40 to 60	60 to 80	> 80	60 to 80	40 to 60	60 to 80		> 80	inhibition at 25 µM (hT2R4): 40 to 60%
COc1ccc(CN(CC2CCCCC2)S(=O)(=O)c2ccc(C(=O)O)cc2)cc1 [Example 5-23, 4-(N-(cyclohexylmethyl)-N-(4-methoxybenzyl)sulfamoyl)-benzoic acid]	++++ (80% or greater inhibition = ++++)		++++ (80% or greater inhibition = ++++)	20 to 40	40 to 60		++ (40% to 60% inhibition = ++)		3470	60 to 80	40 to 60	40 to 60	60 to 80	60 to 80	> 80	> 80	40 to 60	> 80	40 to 60	> 80	inhibition at 25 µM (hT2R4): 40 to 60%
COc1ccc(CN(Cc2ccccc2)S(=O)(=O)c2ccc(C(=O)O)cc2)cc1C [Example 5-89, 4-(N-benzyl-N-(4-methoxy-3-methylbenzyl)sulfamoyl)benzoic acid]	++++ (80% or greater inhibition = ++++)	++++ (80% or greater inhibition = ++++)	++++ (80% or greater inhibition = ++++)	20 to 40	20 to 40	+++ (60% to 80% inhibition = +++)	+ (20% to 40% inhibition = +)	+ (20% to 40% inhibition = +)		20 to 40	40 to 60	20 to 40	40 to 60	60 to 80	> 80	60 to 80	> 80	60 to 80	20 to 40	> 80	
